These results are taken from US5318776A, “Composition for preventing graying of the hair” (priority 1988, dated 1994).

One series relates to grayed hair. In words: Half-Head technique application to scalp of men having grayed hair. Format: in vivo, men (40 to 60 years old). The protocol:
Then, the effects of preventing graying of the hair and restoring grayed hair to its natural color were evaluated by comparing the conditions of the portions observed before and after the application of Samples and the results obtained were listed in the following Table VIII. […]
Then, the effectiveness of the hair cream of the invention and that of Comp.

The nature of series [1]: Stability: residual amount of test compound after standing at 30° C. for 3 months, liquid chromatography. Format: physicochemical. To be noted: for remaining at 2190 h: read-out: Stability Residue(%). Here is the method:
(§1) One month thereafter, regenerated hair was collected from a constant area and the rate (%) of generated grayed hair to all the number of hair collected was estimated. In addition, the aforementioned hair tonic type preparations were allowed to stand at 30° C. for 3 months and the residual amount of the test compounds therein was examined by liquid chromatography as well as the degree of change in smell was also evaluated by means of sensory test.
(§2) One month thereafter, regenerated hair was collected from a constant area and the rate (%) of generated grayed hair to all the number of hair collected was estimated. In addition, the aforementioned compositions were allowed to stand at 30° C. for 3 months and the residual amount of the test compounds therein was examined by liquid chromatography as well as the degree of change in smell was also evaluated by sensory test. […] In addition, the abbreviation P means the averaged added molar number of ethylene oxide residues.

The test system of series [2] is grayed hair (melanocytes). In words: Inhibition of generation of grayed hair in stressed black mice. Format: in vivo. To be noted: Table V, 0.05% test compound in hair tonic, 0.1 ml twice a day, 1 month, control 17.1. Here is the method:
It is known that stress is one of the causes of graying of the hair. […] Moreover, the stability of the composition with time was also estimated.
as §1, §2

Series [3] in a line: Sensory test: degree of change in smell after standing at 30° C. for 3 months.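 On Stability S.E. (Sensory Evaluation): double circle means no smell deterioration on a four-grade scale.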 Format: physicochemical. To be noted: for Stability S.E. (Sensory Evaluation): Table V, 0.05% in hair tonic, 30° C., 3 months. The protocol: as §1, §2
The mark [4] stands for this setting: hair tonic, Table V, 0.05% in hair tonic, 30° C., 3 months.
Where [5] appears, read: Example 6, hair tonic as in Example 3.

For the molecule `CCCCSc1nc2c(N)ncnc2n1[C@@H]1O[C@@H]2COP(=O)(O)O[C@H]2[C@H]1O` [8-butylthio cAMP-Na], the “effect of preventing graying of the hair and restoring grayed hair to its natural color (in words)” value (“effect” for short) with grayed hair (Example 7, hair cream as in Example 5) was “the same effect of preventing graying of the hair and restoring grayed hair to its natural color as in Example 5”. Besides, the “stability (in words)” value in series [1] (Example 7, hair cream) is “stable”. Further, the remaining at 2190 h in series [1] (setting [4]) was determined as 99.9%. The “Rate of Grayed Hair (%)” value in series [2] amounted to 6.5%. Also, the “quality deterioration such as giving out of bad smell” value (“quality deterioration such” for short) in series [3] (Example 7, hair cream) was “did not cause quality deterioration such as giving out of bad smell”. Moreover, in series [3], the “Stability S.E. (Sensory Evaluation)” value was “.circleincircle”.

For `CCOc1nc2c(N)ncnc2n1[C@@H]1O[C@@H]2COP(=O)(O)O[C@H]2[C@H]1O` [8-ethoxy cAMP-Na], the “effect” value with grayed hair (setting [5]) is “the same effect of preventing graying of the hair and restoring grayed hair to its natural color as in Example 3”. The “stability (in words)” value in series [1] (Example 6, hair tonic) is “stable”. The remaining at 2190 h in series [1] (setting [4]) turned out to be 99.8%. Besides, in series [2], the “Rate of Grayed Hair (%)” value was 5.3%. Further, the “quality deterioration such” value in series [3] (Example 6, hair tonic) is on record as “did not cause quality deterioration such as giving out of bad smell”. The “Stability S.E. (Sensory Evaluation)” value in series [3] is listed as “.circleincircle”.

`Nc1ncnc2c1nc(SCCO)n2[C@@H]1O[C@@H]2COP(=O)([O-])O[C@H]2[C@H]1O.[Na+]` [8-ethylhydroxythio cAMP-Na]: in the series on grayed hair (setting [5]), the “effect” value was “the same effect of preventing graying of the hair and restoring grayed hair to its natural color as in Example 3”. For the same molecule, the “stability (in words)” value in series [1] (Example 6, hair tonic) was “stable”. Further, the “Stability Residue(%)” value in series [1] (Table V, 0.05% in hair tonic, 30° C., 3 months, 131400 min) was determined as 99.6%. In addition, the “Rate of Grayed Hair (%)” value in series [2] came out at 5.5%. The “quality deterioration such” value in series [3] (Example 6, hair tonic) is recorded as “did not cause quality deterioration such as giving out of bad smell”. Moreover, the “Stability S.E. (Sensory Evaluation)” value in series [3] was “.circleincircle”.

For `Nc1ncnc2c1nc(O)n2[C@@H]1O[C@@H]2COP(=O)(O)O[C@H]2[C@H]1O` [8-hydroxy cAMP-Na], in the series on grayed hair (setting [5]), the “effect” value is “the same effect of preventing graying of the hair and restoring grayed hair to its natural color as in Example 3”. Further, the “stability (in words)” value in series [1] (Example 6, hair tonic) is reported as “stable”. The remaining at 2190 h in series [1] (setting [4]) came to 99.7%. In addition, in series [2], the “Rate of Grayed Hair (%)” value is 5.6%. The “quality deterioration such” value in series [3] (Example 6, hair tonic) is “did not cause quality deterioration such as giving out of bad smell”. The “Stability S.E. (Sensory Evaluation)” value in series [3] is reported as “.circleincircle”.

As to `COc1nc2c(N)ncnc2n1[C@@H]1O[C@@H]2COP(=O)(O)O[C@H]2[C@H]1O` [8-methoxy cAMP-Na], the “effect” value in the series on grayed hair (Examples 3 to 5, Half-Head, men, 3 months) was “remarkable effects of preventing graying of the hair and restoring grayed hair to its natural color”. In addition, in series [1] (setting [4]), the remaining at 2190 h amounted to 99.9%. Further, in series [2], the “Rate of Grayed Hair (%)” value is given as 4.5%. For the same molecule, in series [3], the “Stability S.E. (Sensory Evaluation)” value was “.circleincircle”.
